Data published in publication PMC4471902, “Block of NMDA receptor channels by endogenous neurosteroids: implications for the agonist induced conformational states of the channel vestibule” (Scientific Reports, 2015).
Structures can show the parent of a compound that is named as a salt. Where two headings read alike, the source gives them in different places.

Key:
[1] = system: GluR0 (potassium-selective prokaryotic glutamate receptor); assay: Whole-cell patch-clamp of GluR0 receptor responses in transfected HEK293 cells; format: cell-based, Synechocystis PCC 6803; details: 1 mM glutamate, PA-S 300 µM
Description: Human embryonic kidney (HEK293) cells were transfected with expression vectors containing: GluN1–1a (GenBank accession number U08261)[52]; GluN2B (GenBank accession number M91562); GluN1-4a(F484A), (generous gift from Dr. J. J. Woodward)[53] (Smothers & Woodward, 2009); GluN3A (generous gift from Dr. S. A. Lipton)[54] (GenBank accession number NM_138546); GluN1ΔN with deleted 354 amino acids in the NTD (32 to 386); GluN1ΔC with an introduced stop codon in 838 of the CTD GluN2BΔN) with deleted 354 amino acids in the NTD (32 to 386); GluN2BΔC with an introduced stop codon in 844 of the CTD[55]; GluR0 (GenBank accession number Synechocystis PCC 6803) (generous gift from Dr. M. L. Mayer)[18]; and green fluorescent protein (GFP) (pQBI 25, Takara, Tokyo, Japan) genes, as described previously. The Quick-Change site-directed mutagenesis kit (Agilent Technologies, Santa Clara, CA, USA) was used to generate specific point mutations in the M1/M3 region according to the manufacturer’s instructions using manually designed primers purchased from Sigma. Modified DNA plasmids were transformed into competent XL10-Gold E.coli cells, positive clones were selected, and isolated DNA was sequenced. […] All mutations were verified by DNA sequencing (Macrogen, Seoul, Korea or SeQme, Dobris, Czech Republic). […]

[2] = target: T1, GluN1(T648A)/GluN2B receptors (Rattus norvegicus, UniProt P35439+Q00960, T648A); assay: Whole-cell patch-clamp of GluN1(T648A)/GluN2B receptor responses in HEK293 cells; format: cell-based; details: for inhibition at 200 µM: HEK293, PA-S 200 μM
T1 construct: expressed in transfected cells; host or cells: HEK293
T1 sequence (Q00960 27-1482, other chains not shown): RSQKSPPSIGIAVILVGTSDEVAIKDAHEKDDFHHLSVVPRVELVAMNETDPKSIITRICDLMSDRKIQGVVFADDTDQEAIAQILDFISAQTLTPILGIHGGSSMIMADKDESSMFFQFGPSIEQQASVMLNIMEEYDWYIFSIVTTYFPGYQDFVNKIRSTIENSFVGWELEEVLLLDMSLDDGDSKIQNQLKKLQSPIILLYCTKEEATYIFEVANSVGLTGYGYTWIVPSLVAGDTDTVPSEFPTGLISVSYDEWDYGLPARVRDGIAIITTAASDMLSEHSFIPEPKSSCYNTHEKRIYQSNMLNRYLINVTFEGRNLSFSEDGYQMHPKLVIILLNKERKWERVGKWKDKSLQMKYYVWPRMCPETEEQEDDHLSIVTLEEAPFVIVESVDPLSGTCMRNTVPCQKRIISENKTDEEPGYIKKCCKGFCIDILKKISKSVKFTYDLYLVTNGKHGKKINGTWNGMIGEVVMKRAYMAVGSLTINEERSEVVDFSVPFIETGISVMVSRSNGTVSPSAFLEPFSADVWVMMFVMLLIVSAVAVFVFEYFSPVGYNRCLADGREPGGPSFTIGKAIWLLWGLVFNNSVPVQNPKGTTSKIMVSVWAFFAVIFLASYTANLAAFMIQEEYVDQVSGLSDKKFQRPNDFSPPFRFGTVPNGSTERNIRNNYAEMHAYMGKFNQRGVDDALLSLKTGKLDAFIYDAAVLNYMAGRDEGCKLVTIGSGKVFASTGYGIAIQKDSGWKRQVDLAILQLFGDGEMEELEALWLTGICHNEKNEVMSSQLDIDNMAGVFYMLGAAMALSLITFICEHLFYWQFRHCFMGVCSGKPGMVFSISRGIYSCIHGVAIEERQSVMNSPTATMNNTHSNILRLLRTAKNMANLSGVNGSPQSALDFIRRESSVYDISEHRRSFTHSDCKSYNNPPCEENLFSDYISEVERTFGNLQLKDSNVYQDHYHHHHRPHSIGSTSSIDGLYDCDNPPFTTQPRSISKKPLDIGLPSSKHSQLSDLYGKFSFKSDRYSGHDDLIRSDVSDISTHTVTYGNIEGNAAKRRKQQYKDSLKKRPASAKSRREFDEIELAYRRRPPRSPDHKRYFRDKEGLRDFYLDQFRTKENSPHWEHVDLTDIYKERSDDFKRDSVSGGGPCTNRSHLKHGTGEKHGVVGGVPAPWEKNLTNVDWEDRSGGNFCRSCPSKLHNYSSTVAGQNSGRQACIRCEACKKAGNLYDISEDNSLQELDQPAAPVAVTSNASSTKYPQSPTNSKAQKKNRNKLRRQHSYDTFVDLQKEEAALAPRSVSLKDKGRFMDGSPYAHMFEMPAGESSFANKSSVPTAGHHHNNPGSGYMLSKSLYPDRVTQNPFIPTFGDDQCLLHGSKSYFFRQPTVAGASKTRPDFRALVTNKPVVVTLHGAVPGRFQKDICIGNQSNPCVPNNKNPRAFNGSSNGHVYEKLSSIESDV
Description: (§1) Human embryonic kidney (HEK293) cells were transfected with expression vectors containing: GluN1–1a (GenBank accession number U08261)[52]; GluN2B (GenBank accession number M91562); GluN1-4a(F484A), (generous gift from Dr. J. J. Woodward)[53] (Smothers & Woodward, 2009); GluN3A (generous gift from Dr. S. A. Lipton)[54] (GenBank accession number NM_138546); GluN1ΔN with deleted 354 amino acids in the NTD (32 to 386); GluN1ΔC with an introduced stop codon in 838 of the CTD GluN2BΔN) with deleted 354 amino acids in the NTD (32 to 386); GluN2BΔC with an introduced stop codon in 844 of the CTD[55]; GluR0 (GenBank accession number Synechocystis PCC 6803) (generous gift from Dr. M. L. Mayer)[18]; and green fluorescent protein (GFP) (pQBI 25, Takara, Tokyo, Japan) genes, as described previously. The Quick-Change site-directed mutagenesis kit (Agilent Technologies, Santa Clara, CA, USA) was used to generate specific point mutations in the M1/M3 region according to the manufacturer’s instructions using manually designed primers purchased from Sigma. Modified DNA plasmids were transformed into competent XL10-Gold E.coli cells, positive clones were selected, and isolated DNA was sequenced. […] All mutations were verified by DNA sequencing (Macrogen, Seoul, Korea or SeQme, Dobris, Czech Republic). The amino acids are numbered according to the full-length protein, including the signal peptide, with the initiating methionine as 1.
(§2) Experiments were performed 24–48 hrs after transfection on cells transfected with GluN1/GluN2B/GFP plasmids. Whole-cell voltage-clamp recordings from HEK293 cells were made with a patch-clamp amplifier (Axopatch 200B; Axon Instruments, Inc., Foster City, CA) after a capacitance and series resistance (<10 MΩ) compensation of 80–90%.
(§3) Patch pipettes (3–5 MΩ) were filled with a solution containing (in mM): 120 gluconic acid, 15 CsCl, 10 BAPTA, 10 HEPES, 3 MgCl2, 1 CaCl2, and 2 ATP-Mg salt (pH-adjusted to 7.2 with CsOH). When GluR0 receptor responses were studied, intracellular solution contained (in mM): 120 gluconic acid, 15 KCl, 10 BAPTA, 10 HEPES, 3 MgCl2, 1 CaCl2, and 2 ATP-Mg salt (pH-adjusted to 7.2 with KOH). Extracellular solution (ECS) contained the following (in mM): 160 NaCl, 2.5 KCl, 10 HEPES, 10 glucose, 0.2 EDTA, and 0.7 CaCl2 (pH-adjusted to 7.3 with NaOH). Glycine (10 μM), an NMDAR co-agonist, was present in the control and test solutions. All (PA-S and PA-A) solutions were made from freshly prepared 20 mM PA-S and 5 mM PA-A stock in dimethyl sulfoxide (DMSO). The final dilution to ECS was made at 50 °C and followed by 1 min sonication (SONOREX DIGITEC DT 100/H, BADELIN electronic, Berlin, Germany). The same concentration of DMSO was added to all extracellular solutions. Drug applications were made with a microprocessor-controlled multibarrel fast-perfusion system. Changes in the glutamate-induced current in HEK293 cells transfected by GluN1/GluN2B subunits were used to estimate the rate of solution exchange around the cell. Standard ECS was switched to the ECS diluted by water (50%) during glutamate application. The osmolarity was adjusted by sucrose to match the standard ECS. Glutamate (1 mM), glycine (10 μM) and pH was maintained constant in both solutions. The solution exchange rate was estimated to be τ = 4.3 ± 0.3 ms (n = 6) for lifted cells and τ = 12.0 ± 0.9 ms (n = 6) for the attached cells.
The IC50 was determined from a single dose of a steroid using the formula [drawing 1] where I is the relative degree of inhibition and [steroid] is the steroid concentration used. Calculations of IC50 were made assuming 100% inhibition at saturating steroid concentration this is valid for both PA-S and PA-A[12][13]. […]

GluN1ΔN/GluN2BΔN = target: T2, GluN1ΔN/GluN2BΔN (Rattus norvegicus, UniProt P35439+Q00960, DEL32-386); assay: Whole-cell patch-clamp of N-terminal truncated NMDARs in HEK293 cells; format: cell-based; details: 1 mM glutamate, PA-S 50 µM
T2 construct: expressed in transfected cells; host or cells: HEK293
Description: (§4) Human embryonic kidney (HEK293) cells were transfected with expression vectors containing: GluN1–1a (GenBank accession number U08261)[52]; GluN2B (GenBank accession number M91562); GluN1-4a(F484A), (generous gift from Dr. J. J. Woodward)[53] (Smothers & Woodward, 2009); GluN3A (generous gift from Dr. S. A. Lipton)[54] (GenBank accession number NM_138546); GluN1ΔN with deleted 354 amino acids in the NTD (32 to 386); GluN1ΔC with an introduced stop codon in 838 of the CTD GluN2BΔN) with deleted 354 amino acids in the NTD (32 to 386); GluN2BΔC with an introduced stop codon in 844 of the CTD[55]; GluR0 (GenBank accession number Synechocystis PCC 6803) (generous gift from Dr. M. L. Mayer)[18]; and green fluorescent protein (GFP) (pQBI 25, Takara, Tokyo, Japan) genes, as described previously. The Quick-Change site-directed mutagenesis kit (Agilent Technologies, Santa Clara, CA, USA) was used to generate specific point mutations in the M1/M3 region according to the manufacturer’s instructions using manually designed primers purchased from Sigma. Modified DNA plasmids were transformed into competent XL10-Gold E.coli cells, positive clones were selected, and isolated DNA was sequenced. […]
(§5) The IC50 was determined from a single dose of a steroid using the formula [drawing 1] where I is the relative degree of inhibition and [steroid] is the steroid concentration used. […]

[3] = system: mutated GluN1/GluN2B receptors; assay: PA-S sensitivity of NMDARs mutated in the M1 and M3 regions of GluN1 and GluN2B (HEK293 cells); format: cell-based
Description: as §1, §2
as §3, with “The solution exchange rate was estimated to be τ = 4.3 ± 0.3 ms (n = 6) for lifted cells and τ = 12.0 ± 0.9 ms (n = 6) for the attached cells.” left out
as §5

[4] = target: T3, GluN1-4a(F484A)/eGFP-GluN3A receptor (Rattus norvegicus, UniProt P35439+Q9R1M7, F484A); assay: Whole-cell patch-clamp of glycine-activated GluN1-4a(F484A)/eGFP-GluN3A receptor responses in HEK293 cells; format: cell-based
T3 construct: eGFP; expressed in transfected cells; host or cells: HEK293
T3 sequence (Q9R1M7 24-1135, other chains not shown): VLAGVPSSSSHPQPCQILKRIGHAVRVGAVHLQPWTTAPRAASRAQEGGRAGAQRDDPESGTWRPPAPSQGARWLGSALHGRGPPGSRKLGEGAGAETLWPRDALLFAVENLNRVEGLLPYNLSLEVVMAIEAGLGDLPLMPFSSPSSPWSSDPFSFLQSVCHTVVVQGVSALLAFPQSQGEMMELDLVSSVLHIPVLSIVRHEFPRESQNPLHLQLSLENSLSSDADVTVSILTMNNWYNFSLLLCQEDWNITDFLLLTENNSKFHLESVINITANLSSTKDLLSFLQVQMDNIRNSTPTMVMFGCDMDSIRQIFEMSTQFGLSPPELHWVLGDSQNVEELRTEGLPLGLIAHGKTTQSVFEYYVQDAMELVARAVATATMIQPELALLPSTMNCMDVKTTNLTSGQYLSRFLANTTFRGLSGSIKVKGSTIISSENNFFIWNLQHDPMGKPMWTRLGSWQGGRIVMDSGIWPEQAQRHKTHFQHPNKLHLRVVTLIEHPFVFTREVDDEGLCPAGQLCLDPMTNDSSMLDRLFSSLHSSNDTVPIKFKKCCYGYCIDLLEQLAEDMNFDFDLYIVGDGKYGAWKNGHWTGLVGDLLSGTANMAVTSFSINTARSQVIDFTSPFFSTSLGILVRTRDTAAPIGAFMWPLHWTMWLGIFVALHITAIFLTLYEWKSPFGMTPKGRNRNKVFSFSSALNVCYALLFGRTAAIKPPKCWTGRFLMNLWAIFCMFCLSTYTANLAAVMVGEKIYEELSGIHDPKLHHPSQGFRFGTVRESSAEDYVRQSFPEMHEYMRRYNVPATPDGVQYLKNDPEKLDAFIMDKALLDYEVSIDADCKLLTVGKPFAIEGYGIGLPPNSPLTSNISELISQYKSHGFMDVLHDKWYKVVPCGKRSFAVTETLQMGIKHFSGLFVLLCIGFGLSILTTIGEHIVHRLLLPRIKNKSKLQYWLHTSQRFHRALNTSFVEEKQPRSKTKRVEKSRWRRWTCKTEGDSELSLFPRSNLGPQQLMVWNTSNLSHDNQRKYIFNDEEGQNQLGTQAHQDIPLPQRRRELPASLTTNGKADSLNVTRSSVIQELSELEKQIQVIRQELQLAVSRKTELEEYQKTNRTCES
Description: as §4, §5

GluN2B(Y646A) = target: T4, GluN2B(Y646A) (Rattus norvegicus, UniProt P35439+Q00960, Y646A); assay: Whole-cell patch-clamp of GluN1/GluN2B(Y646A) receptor responses in HEK293 cells; format: cell-based
T4 construct: expressed in transfected cells; host or cells: HEK293
T4 sequence (Q00960 27-1482 Y646A, other chains not shown): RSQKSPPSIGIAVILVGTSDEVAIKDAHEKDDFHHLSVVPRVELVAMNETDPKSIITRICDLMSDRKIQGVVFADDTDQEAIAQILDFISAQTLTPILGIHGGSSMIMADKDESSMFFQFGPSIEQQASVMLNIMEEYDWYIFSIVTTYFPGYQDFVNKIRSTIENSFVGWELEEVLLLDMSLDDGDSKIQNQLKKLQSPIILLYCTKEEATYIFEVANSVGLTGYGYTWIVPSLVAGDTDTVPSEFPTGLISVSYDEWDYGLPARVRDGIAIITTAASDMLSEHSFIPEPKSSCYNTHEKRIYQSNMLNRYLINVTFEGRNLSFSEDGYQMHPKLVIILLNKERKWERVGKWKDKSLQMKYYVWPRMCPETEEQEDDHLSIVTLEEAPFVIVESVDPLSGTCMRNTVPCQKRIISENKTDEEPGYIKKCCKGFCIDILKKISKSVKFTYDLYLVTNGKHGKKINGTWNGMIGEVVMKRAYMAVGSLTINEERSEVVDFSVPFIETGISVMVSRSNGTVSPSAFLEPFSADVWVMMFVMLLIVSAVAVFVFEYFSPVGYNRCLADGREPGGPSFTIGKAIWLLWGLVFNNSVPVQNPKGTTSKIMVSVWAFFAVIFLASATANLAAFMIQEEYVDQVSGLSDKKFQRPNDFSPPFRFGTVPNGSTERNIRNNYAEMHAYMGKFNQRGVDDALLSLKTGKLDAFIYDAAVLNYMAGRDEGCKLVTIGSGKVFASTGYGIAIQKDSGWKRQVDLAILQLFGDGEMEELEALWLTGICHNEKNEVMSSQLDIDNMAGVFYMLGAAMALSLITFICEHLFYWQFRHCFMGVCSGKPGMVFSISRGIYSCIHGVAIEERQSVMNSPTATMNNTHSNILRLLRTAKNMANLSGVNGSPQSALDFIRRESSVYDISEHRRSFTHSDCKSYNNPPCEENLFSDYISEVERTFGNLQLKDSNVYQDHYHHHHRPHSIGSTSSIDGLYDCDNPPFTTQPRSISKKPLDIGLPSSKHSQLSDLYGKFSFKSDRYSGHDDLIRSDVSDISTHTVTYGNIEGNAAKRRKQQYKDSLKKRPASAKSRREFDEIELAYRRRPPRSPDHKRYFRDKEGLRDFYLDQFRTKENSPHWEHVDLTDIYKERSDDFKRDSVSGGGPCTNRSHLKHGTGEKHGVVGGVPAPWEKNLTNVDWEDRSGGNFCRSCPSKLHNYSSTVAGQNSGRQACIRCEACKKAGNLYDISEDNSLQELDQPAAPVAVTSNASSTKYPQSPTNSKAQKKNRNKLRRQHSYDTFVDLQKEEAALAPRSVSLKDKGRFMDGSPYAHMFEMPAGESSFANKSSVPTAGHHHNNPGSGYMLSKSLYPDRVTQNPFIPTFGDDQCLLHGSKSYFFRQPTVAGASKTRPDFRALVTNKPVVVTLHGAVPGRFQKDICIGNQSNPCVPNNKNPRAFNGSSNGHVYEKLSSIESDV
Description: as §4, §5

With `CC(=O)[C@H]1CC[C@H]2[C@@H]3CC[C@@H]4C[C@H](OS(=O)(=O)O)CC[C@]4(C)[C@H]3CC[C@]12C` [PA-S, 20-oxo-5β-pregnan-3α-yl sulfate] as the molecule, how does the “effect on glutamate-induced responses” value [1] read?
The value was “inhibited”.

What about the IC50 [2] of the same molecule?
Its IC50 is 758 ± 27 µM.

What about the “voltage dependence of steroid inhibition” value [2] of the same molecule?
Its value is “voltage independent”.

What about the inhibition at 200 µM ([2]; read-out: degree of inhibition of agonist-evoked currents) of the same molecule?
The inhibition at 200 µM was 13.6 ± 0.9%.

And the inhibition at 200 µM ([2]; read-out: degree of inhibition of spontaneous currents)?
The inhibition at 200 µM was 13.8 ± 0.7%.

And the “intercept of linear fit of mean inhibition versus holding potential” value ([2]; PA-S 200 µM, 1 mM glutamate)?
Its value is 15.8.

And the IC50 (GluN1ΔN/GluN2BΔN)?
The IC50 was 41 ± 2 µM.

What about the “difference of PA-S IC50 between GluN1(T648A)/GluN2B and GluN1/GluN2B(T647A) receptors” value [3] of the same molecule?
The value was 5.4 fold.

And the “change of PA-S IC50 relative to the WT receptor value” ([3]; GluN1: F654A, GluN2B: P547A/S548A, F550A, L551A/E552A, F637A/F638A, Y646A, M654A, E657A/E658A)?
The value was “less than half”.

And the “change of PA-S IC50 relative to the WT receptor value” ([3]; GluN1: Y647A, T648A, A649T, N650A/L651A, V656A, GluN2B: S645A, T647A, A652T)?
The value was “over two-fold”.

And the IC50 ([3]; residues whose mutation decreased the IC50 by half (GluN1: F654A; GluN2B: P547A/S548A, F550A, L551A/E552A, F637A/F638A, Y646A, M654A, E657A/E658A))?
The IC50 was < 21 µM.

And the IC50 ([3]; residues whose mutation increased the IC50 more than two-fold (GluN1: Y647A, T648A, A649T, N650A/L651A, V656A; GluN2B: S645A, T647A, A652T))?
Its IC50 is > 84 µM.

What about the “degree of PA-S inhibition, mutated vs WT GluN1-4a subunit in combination with GluN3A” value [4] of the same molecule?
Its value is “no significant difference”.

What about the IC50 ([4]; glycine-activated, PA-S 50 µM) of the same molecule?
The IC50 was 27 ± 3 µM.

What about the IC50 (GluN2B(Y646A)) of the same molecule?
The IC50 was 4.3 ± 0.7 µM.
